For the test, the target named is T1, human TAS1R2-R317G/TAS1R3-WT (Homo sapiens, UniProt Q7RTX0+Q8TE23, R317G).
T1 construct: expressed in transfected cells; host or cells: HEK293T-Gα16gust44
T1 sequence (Q8TE23 20-839 R317G): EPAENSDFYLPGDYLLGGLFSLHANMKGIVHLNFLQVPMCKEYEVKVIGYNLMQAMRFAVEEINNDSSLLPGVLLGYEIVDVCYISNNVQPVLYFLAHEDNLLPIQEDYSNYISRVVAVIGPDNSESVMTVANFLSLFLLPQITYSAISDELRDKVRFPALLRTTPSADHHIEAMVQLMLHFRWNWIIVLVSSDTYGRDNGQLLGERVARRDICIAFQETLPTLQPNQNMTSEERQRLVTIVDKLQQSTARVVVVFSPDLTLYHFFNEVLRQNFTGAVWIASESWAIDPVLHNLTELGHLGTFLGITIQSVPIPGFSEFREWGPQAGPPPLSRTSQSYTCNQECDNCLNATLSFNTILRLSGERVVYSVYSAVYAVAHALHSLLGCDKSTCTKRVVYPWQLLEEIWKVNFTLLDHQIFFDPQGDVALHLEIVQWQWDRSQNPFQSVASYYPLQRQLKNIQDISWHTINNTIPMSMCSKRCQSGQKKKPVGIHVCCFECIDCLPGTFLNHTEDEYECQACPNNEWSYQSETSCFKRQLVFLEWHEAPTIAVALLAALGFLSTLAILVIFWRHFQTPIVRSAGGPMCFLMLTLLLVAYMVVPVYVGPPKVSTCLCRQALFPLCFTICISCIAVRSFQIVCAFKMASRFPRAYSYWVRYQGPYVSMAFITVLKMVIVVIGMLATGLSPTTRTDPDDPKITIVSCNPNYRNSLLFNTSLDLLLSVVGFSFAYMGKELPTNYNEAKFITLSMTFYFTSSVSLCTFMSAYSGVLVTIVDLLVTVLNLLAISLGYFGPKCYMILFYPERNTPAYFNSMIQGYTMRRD
T1 sequence (Q7RTX0 21-852): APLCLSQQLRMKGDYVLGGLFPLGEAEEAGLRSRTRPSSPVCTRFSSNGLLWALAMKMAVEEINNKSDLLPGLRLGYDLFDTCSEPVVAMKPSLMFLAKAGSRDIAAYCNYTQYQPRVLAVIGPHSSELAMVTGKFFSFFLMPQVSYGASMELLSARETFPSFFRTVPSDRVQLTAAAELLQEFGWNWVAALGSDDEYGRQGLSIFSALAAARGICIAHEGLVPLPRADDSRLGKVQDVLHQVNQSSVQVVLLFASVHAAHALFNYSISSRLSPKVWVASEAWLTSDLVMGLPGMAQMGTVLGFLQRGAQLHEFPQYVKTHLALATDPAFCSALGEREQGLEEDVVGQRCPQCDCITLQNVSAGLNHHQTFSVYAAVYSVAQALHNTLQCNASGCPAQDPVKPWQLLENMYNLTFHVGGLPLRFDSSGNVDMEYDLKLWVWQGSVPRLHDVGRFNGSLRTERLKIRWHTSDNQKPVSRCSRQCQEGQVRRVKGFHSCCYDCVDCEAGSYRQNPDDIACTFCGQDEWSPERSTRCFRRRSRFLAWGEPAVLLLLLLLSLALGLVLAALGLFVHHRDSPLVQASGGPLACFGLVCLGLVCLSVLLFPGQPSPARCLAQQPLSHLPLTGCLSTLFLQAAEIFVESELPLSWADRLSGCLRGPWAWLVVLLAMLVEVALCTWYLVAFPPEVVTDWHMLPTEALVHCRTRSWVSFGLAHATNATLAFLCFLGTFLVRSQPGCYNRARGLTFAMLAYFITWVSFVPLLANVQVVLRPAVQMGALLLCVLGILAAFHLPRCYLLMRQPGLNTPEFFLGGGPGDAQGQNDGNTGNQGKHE
Briefly: Calcium mobilisation assay, TAS1R2 variant R317G with TAS1R3-WT. Format: cell-based. Particulars: for Max ΔF/F0: maximal signal amplitude. An excerpt:
The coding sequences for TAS1R2 and TAS1R3 were commercially synthesised, and the human codon was optimised for expression in human cells. The coding sequences of human TAS1R2 and TAS1R3 were subcloned and inserted into the mammalian expression vectors pcDNA6/myc-HisA and pcDNA4/myc-HisA (Invitrogen; Thermo Fisher Scientific; Illkirch, France) between the EcoRI and NotI restriction sites, generating the plasmids pcDNA6-TAS1R2 and pcDNA4-TAS1R3, respectively. To increase protein expression in mammalian cells, an upstream start codon was used, which was a sequence called MAX, corresponding to the QBI SP163 element also described in pcDNA4-HisMax (Invitrogen; Thermo Fisher Scientific; Illkirch, France). To measure the expression level of the receptor by immunohistochemistry, we used the FLAG sequence ([…]) in the C-terminal position, which encodes the FLAG tag epitope. SNP variants of TAS1R2 and TAS1R3 were constructed based on […], respectively, using site-directed mutagenesis (Genewiz; Leipzig, Germany).
The HEK293T cells were kindly provided by Jay P. Slack (Givaudan Flavors Corporation; Cincinnati, OH, USA). HEK293T cells stably transfected with Gα16gust44 [43, 67] were seeded in poly-D-lysine-coated clear-bottom black 96-well plates (0.35 × 10^5 cells/well) in high-glucose DMEM supplemented with 2 mM GlutaMAX, 10% dialysed foetal bovine serum with penicillin/streptomycin and G418 (400 μg/mL) at 37 °C and 6.3% CO2 in a humidified atmosphere as previously reported. […] As a negative control, HEK293T cells were mock-transfected with the empty expression vector. After a further 24 h of incubation, the HEK293T cells were washed with C1 buffer (130 mM NaCl, 5 mM KCl, 10 mM HEPES pH 7.4 and 2 mM CaCl2). The 96-well plates containing the cells were then stimulated with sweet-tasting compounds. […] Different concentration ranges were tested depending on the sweet compound injected. The Ca^2+ changes were expressed as fractional changes in fluorescent light intensity: ΔF/F = (F − F0)/F0, where F was the fluorescent light intensity at each point, and F0 was the value of emitted fluorescent light prior to stimulus application. To calculate dose–response relationships, the changes in fluorescence upon stimulus application were averaged, mock-subtracted and baseline-corrected. The dose–response data obtained were adjusted using a 4-parameter logistic equation. The half-maximal effective concentrations (EC50 values) and maximal signal amplitudes were calculated using SigmaPlot software (version 15.0) (Systat Software; San Jose, CA, USA).
For in vitro calcium mobilisation assay performed on hTAS1R2-SNPs, hTAS1R3-SNPs and mTAS1R3-I60T, 6 to 7 concentrations were tested for each sweet compound, plus buffer alone. All concentration–receptor combinations were measured in duplicate, and each experiment was repeated at least 4 times (8 wells/concentration). Results were expressed for each concentration as ΔF/F mean ± SEM and represented as dose–response curves.
A general note: Calcium flux is commonly read through the fluorescence of an indicator in the cells.

The results in this text go back to article PMC11945486, “TAS1R2/TAS1R3 Single-Nucleotide Polymorphisms Affect Sweet Taste Receptor Activation by Sweeteners: The SWEET Project” (Nutrients, 2025).

Usually EC50 stands for the concentration at which the effect is half-maximal.

No end group written: not given here.

Regarding `OC[C@H]1O[C@H](O[C@]2(CCl)O[C@H](CCl)[C@@H](O)[C@@H]2O)[C@H](O)[C@@H](O)[C@H]1Cl` [Sucralose], the EC50 was found to be 62 ± 11 µM, the “R1 = Variant EC50/WT EC50” value turned out to be 0.7 and the “Max ΔF/F0” value was 0.80 ± 0.05.

Regarding `C[C@H](CC[C@@H](O[C@@H]1O[C@H](CO[C@@H]2O[C@H](CO)[C@@H](O)[C@H](O)[C@H]2O)[C@@H](O)[C@H](O)[C@H]1O[C@@H]1O[C@H](CO)[C@@H](O)[C@H](O)[C@H]1O)C(C)(C)O)[C@H]1CC[C@@]2(C)[C@@H]3CC=C4[C@@H](CC[C@H](O[C@@H]5O[C@H](CO[C@@H]6O[C@H](CO)[C@@H](O)[C@H](O)[C@H]6O)[C@@H](O)[C@H](O)[C@H]5O)C4(C)C)[C@]3(C)[C@H](O)C[C@]12C` [Mogroside V, mogroside V], the concentration for a half-maximal effect (EC50) is 18.4 ± 1 µM, the “R1 = Variant EC50/WT EC50” value was 1.1 and the “Max ΔF/F0” value amounted to 1.34 ± 0.03.

In the case of `COC(=O)[C@H](Cc1ccccc1)NC(=O)[C@H](CC(=O)O)NCCC(C)(C)C` [Neotame], the EC50 was determined as 0.73 ± 0.13 µM, the “R1 = Variant EC50/WT EC50” value is on record as 0.9 and the “Max ΔF/F0” value is recorded as 0.56 ± 0.03.

Regarding “brazzein (QDKCKKVYENYPVSKCQLANQCNYDCKLDKHARSGECFYDEKRNLQCICDYCEY; ends and bridges not checked; cysteine pairing not given here; UniProt P56552 1-54, looked up) [sweet-tasting protein obtained by recombinant production using the yeast Pichia pastoris]”, the “R1 = Variant EC50/WT EC50” value is listed as 1.3 and the “Max ΔF/F0” value is 1.18 ± 0.03.

For the molecule `C=C(C)[C@@H]1CC=C(/C=N/O)CC1` [Perillartine, perillartine], the EC50 was found to be 20.7 ± 0.6 µM, the “R1 = Variant EC50/WT EC50” value is on record as 1.2 and the “Max ΔF/F0” value is recorded as 1.53 ± 0.03.

In the case of `CC1=CC(=O)NS(=O)(=O)O1` [Acesulfame K, acesulfame K], the EC50 is 465 ± 55 µM, the “R1 = Variant EC50/WT EC50” value came out at 0.7 and the “Max ΔF/F0” value is listed as 0.46 ± 0.02.

For `C=C1C[C@@]23CC[C@H]4[C@@](C)(CCC[C@@]4(C)C(=O)O[C@@H]4O[C@H](CO)[C@@H](O)[C@H](O[C@@H]5O[C@H](CO)[C@@H](O)[C@H](O)[C@H]5O)[C@H]4O[C@@H]4O[C@H](CO)[C@@H](O)[C@H](O)[C@H]4O)[C@@H]2CC[C@]1(O[C@@H]1O[C@H](CO)[C@@H](O)[C@H](O[C@@H]2O[C@H](CO)[C@@H](O)[C@H](O)[C@H]2O)[C@H]1O[C@@H]1O[C@H](CO)[C@@H](O)[C@H](O)[C@H]1O)C3` [Rebaudioside M, rebaudioside M], the 50% effective concentration (EC50) came to 20.4 ± 0.4 µM, the “R1 = Variant EC50/WT EC50” value came to 1.2 and the “Max ΔF/F0” value came to 1.23 ± 0.01.

For the molecule `O=S(=O)(O)NC1CCCCC1` [Cyclamate, cyclamate], the EC50 stood at 2160 ± 44 µM.

Take `COc1ccc(CCC(=O)c2c(O)cc(O[C@@H]3O[C@H](CO)[C@@H](O)[C@H](O)[C@H]3O[C@@H]3O[C@@H](C)[C@H](O)[C@@H](O)[C@H]3O)cc2O)cc1O` [NHDC, neohesperidin dihydrochalcone]: the EC50 was found to be 97.1 ± 5 µM, the “R1 = Variant EC50/WT EC50” value amounted to 1.3 and the “Max ΔF/F0” value was found to be 0.85 ± 0.02.

Turning to thaumatin, the “R1 = Variant EC50/WT EC50” value amounted to 1.4 and the “Max ΔF/F0” value is listed as 1.16 ± 0.02.

B1: thaumatin (protein)
chain: ATFEIVNRCSYTVWAAASKGDAALDAGGRQLNSGESWTINVEPGTKGGKIWARTDCYFDDSGSGICKTGDCGGLLRCKRFGRPPTTLAEFSLNQYGKDYIDISNIKGFNVPMDFSPTTRGCRGVRCAADIVGQCPAKLKAPGGGCNDACTVFQTSEYCCTTGKCGPTEYSRFFKRLCPDAFSYVLDKPTTVTCPGSSNYRVTFCPTA
modifications: Eight disulfides
notes: sweet-tasting plant protein, E957
As for B1, the EC50 is 10.9 ± 0.3 µM.
